According to patent US10080779B2, “Method for increasing the expression of anti-microbial peptides by keratinocytes comprising administering a composition comprising IL-17, TNF-alpha and OSM” (Universite D'Angers, priority 2004, dated 2018):

Key:
[1] = tested on: normal human keratinocytes (NHEK); assay: Cytokine cocktails on S100A7, hBD2/4, KRT10 mRNA in NHEK (RT-Q-PCR); type: cell-based; conditions: NHEK 24 hrs, 1 ng/ml each
Procedure: (§1) Quantitative real time PCR was carried out using the LightCycler-FastStart DNA Master^PLUS SYBR Green I kit (Roche, Mannheim, Germany). The reaction components were 1× FastStart DNA Master^PLUS SYBR Green I and 0.5 μM of forward and reverse primers for S100A7 (forward 5′-[…]-3′ (SEQ ID No: 9) and reverse 5′-[…]-3′ (SEQ ID No: 10)), S100A8 (Pattyn, Speleman et al. 2003), S100A9 (forward 5′-[…]-3′ (SEQ ID No: 11) and reverse 5′-[…]-3′ (SEQ ID No: 12)), hBD2/4 (forward 5′-[…]-3′ (SEQ ID No: 13) and reverse 5′-[…]-3′ (SEQ ID No: 14)), KRT10 (forward 5′-[…]-3′ (SEQ ID No: 15) and reverse 5′-[…]-3′ (SEQ ID No: 16)), and hydroxymethyl-bilane synthase (HMBS) as a housekeeping gene (Vandesompele, De Preter et al. 2002). After cDNA fluorescent quantification using propidium iodide, 250 ng, 25 ng and 2.5 ng of cDNA were added as PCR template in the LightCycler glass capillaries. The cycling conditions comprised a 10 min polymerase activation at 95° C. and 50 cycles at 95° C. for 10 s, 64° C. for 5 s and 72° C. for 18 s with a single fluorescence measurement. […] A mathematical model was used to determine the relative quantification of target genes compared to HMBS reference gene (Pfaffl 2001).
To that aim, confluent normal human keratinocytes (NHEK) were treated for 24 hrs with the indicated mix of cytokines (each cytokine at 1 ng/ml final concentration). Total RNA was extracted, reverse-transcribed and the expression of the selected genes was analyzed by real-time PCR as described.

[2] = tested on: NHEK; assay: cDNA macroarrays analysis of 36 cytokines on 154 genes in NHEK; type: cell-based, human; conditions: 10 ng/ml, 24 h
Procedure: The comparison of the effects of 36 different cytokines on the expression of 154 genes of potential interest for skin physiology was performed using home-made cDNA macroarrays analysis. After cytokine stimulation, total RNA was extracted using TRIzoI® Reagent (Invitrogen life Technologies) and conventional 33P-cDNA target synthesis and hybridization were performed (Boniface et al, 2007). Genes were considered regulated if expression levels differed more than 3-fold relative to untreated control and 3-fold relative to mean background noise.

[3] = tested on: NHEK; assay: Cytokine measurement by ELISA in NHEK culture supernatants; type: cell-based, human; conditions: 10 ng/ml, 96 h
Procedure: (§2) NHEK were obtained as previously described, from surgical samples of healthy breast skin (Boniface et al, 2005). NHEK were cultured to 80% of confluence and then starved for 24 h in Keratinocyte SFM without addition of growth factors before stimulation. Cells were stimulated with or without 10 ng/ml of recombinant IL-17A, OSM, TNFα, IL-22 and IL-1α alone or in combination (R&D systems Europe, Lille, France) during 24 h for mRNA quantification or 48 h to 96 h for protein quantification.
Levels of BD2, BD3 and CXCL8 were determined using Human ELISA development kit (Peprotech), and CXCL1 and CXCL5 with DuoSet reagents (R&D Systems Europe).

[4] = tested on: NHEK; assay: RT-QPCR of antimicrobial peptide and chemokine genes in NHEK; type: cell-based, human; conditions: 10 ng/ml, 24 h
Procedure: as §2
NHEK and skin total RNA were isolated and reverse-transcribed as previously described (Boniface et al, 2005). Quantitative real time PCR was carried using the LightCycler-FastStart DNA Master SYBR® Green I kit on LightCycler 480 (Roche Diagnostics, Meylan, France). The reaction components were 1×DNA Master Mix, and 0.5 μM of HPLC purified sense and anti-sense oligonucleotides purchased from Eurogentec (Eurogentec France, Angers, France), designed using Primer3 software. Samples were normalized to three independent control housekeeping genes (G3PDH, RPL13A or ACTB for human samples and G3PDH, HMBS or B2m for mouse samples) and reported according to the ΔΔCT method as RNA fold increase: 2^ΔΔCT=2^ΔCT sample−ΔCT eference. For comparison of normal skin and psoriatic skin the REST 2008 software was used (Pfaffl et al., 2002).

[5] = tested on: NHEK; assay: S100A7 Western blotting in NHEK (Example 13); type: cell-based, human; conditions: 10 ng/ml, 96 h
Procedure: After 96 h of stimulation, NHEK lysis was performed as previously described (Boniface et al, 2005). After separation by SDS-PAGE, proteins were transferred to nitrocellulose membranes (Amersham pharmacia biotech) by electroblotting. S100A7 was detected with mouse anti-human S100A7 mAb (Imgenex, San Diego, Calif., USA) and sheep anti-mouse IgG peroxidase-conjugated polyclonal Ab (Amersham Biosciences). Bound Ab were detected by chemiluminescence (ECL Hyperfilm and ECL Plus Reagen, Amersham Biosciences Ltd).

[6] = tested on: NHEK; assay: Keratinocyte differentiation marker (KDM) mRNA in NHEK (RT-PCR); type: cell-based, human; conditions: 24 h; for mRNA expression of CK1, DSG1, DSC1, FLG, CLSP, LOR and FABPS: single cytokines 10 ng/ml
Procedure: (§3) Normal human epidermal keratinocytes (NHEK) were obtained as previously described, from surgical samples of healthy breast skin (Boniface et al, 2005). NHEK were cultured to 80% of confluence allowing the expression of a large panel of keratinocyte differentiation markers, and then starved for 24 h in Keratinocyte SFM containing 0.03 mM Ca^2+ (Invitrogen Life Technologies, Cergy Pontoise, France) before stimulation. Confluent differentiated cells were stimulated with or without recombinant IL-17A, OSM, TNFα, IL-22 and IL-1α alone at maximum effective concentrations (reported previously around 10 ng/ml (Boniface et al, 2005 and Boniface et al, 2007)) or in combination (R&D systems Europe, Lille, France) during 2 h to 72 h for mRNA quantification. RHE were generated on polycarbonate culture inserts, from surgical samples of paediatric foreskins as previously described (Guenou et al., 2009). RHE were stimulated with or without recombinant IL-17A, OSM, TNFα, IL-22 and IL-1α alone or in combination, with or without a Janus protein Tyrosine Kinases (JAKs) inhibitor 10 μM (Calbiochem, 420099), during 24 h for mRNA quantification or during 72 h for immunohistological analysis.
(§4) NHEK, RHE and murine skin total RNA were isolated using NucleoSpin® RNA II kit (Macherey-Nagel, Hoerdt, France) and reverse-transcribed with SuperScript® II Reverse Transcriptase (Invitrogen Life Technologies) according to the manufacturer's instructions. Quantitative real time PCR was carried out using the LightCycler-FastStart DNA Master SYBR® Green I kit on LightCycler 480 (Roche Diagnostics, Meylan, France). The reaction components were 1×DNA Master Mix, and 0.5 μM of HPLC purified sense and anti-sense oligonucleotides purchased from Eurogentec (Eurogentec France, Angers, France), designed using Primer3 software. The stability of the housekeeping gene expression has been assessed by using GeNorm algorithm. […] Thus samples were normalized to G3PDH housekeeping gene and reported according to the ΔΔCT method as RNA fold increase: 2^ΔΔCT=2^ΔCT sample−ΔCT reference.

[7] = tested on: RHE; assay: RHE histology and immunohistochemistry (Example 14); type: cell-based, human; conditions: single cytokines, 72 h
Procedure: as §3
RHE were washed and fixed with formaldehyde solution. Fixed tissues were dehydrated with increasing ethanol concentrations, embedded in paraffin and sections were carried out using a microtome (4 μm thickness). The sections were deparaffinised, washed and incubated with hydrogen peroxide. The sections were incubated with anti-CK10 (SantaCruz, SC-23877), anti-LOR (Eurogentec, PRB-145P), anti-FLG (SantaCruz, SC-66192), anti-IVL (Biomedical Technologies, BT-601), anti-S100A7 (Clinisciences, IMG-409A) and then detected using a biotin-conjugated secondary antibody (Vector, RTU vectastain universal quick kit, PK-7800). After peroxidase-conjugated streptavidine (Vector, RTU vectastain universal quick kit, PK-7800) and peroxidase substrate addition (Dako, Substrat hyper-sensible AEC+), nuclei were counter-stained using a solution of hematoxylin. Sections were observed using a NIKON E400 microscope. The images were captured using a NIKON DS-Ril and processed with NIS-Elements 3.10 software.

[8] = tested on: RHE; assay: KDM mRNA in reconstituted human epidermis (RT-PCR); type: cell-based; conditions: 24 h
Procedure: as §3, §4

[9] = tested on: STAT3; assay: STAT3 phosphorylation in NHEK (Western blot); type: cell-based, human; conditions: NHEK stimulated 15 min with the cytokine
Procedure: For STAT3 and MAPK phosphorylation, NHEK were stimulated for 15 min in the presence of the indicated cytokine. Cells were lysed in SDS sample buffer (62.5 mM Tris-HCl pH 6.8, 2% SDS, 10% glycerol, 50 mM DTT, 0.1% bromophenol blue), sonicated and then submitted to SDS-PAGE and transferred onto an Immobilon membrane. The membranes were subsequently incubated overnight with the primary antibody, before being incubated with the appropriate peroxidase-labelled secondary antibody for 60 min. The reaction was visualized by chemiluminescence according to the manufacturer's instructions. Membranes were stripped in 0.1 M glycine pH 2.8 for 2 h and neutralized in 1 M Tris-HCl pH 7.6 before reblotting. For neutralizing experiments, NHEK were incubated with the appropriate antibodies for 2 h before stimulation.

[10] = tested on: NHEK; assay: In vitro keratinocyte migration assay; type: cell-based, human; conditions: mitomycin-treated wounded NHEK; OSM 10 ng/ml, IL-31 100 ng/ml
Procedure: Keratinocytes were cultured in wells pre-coated with type I collagen (200 μg/ml, Institut Jacques Boy, Reims, France) until they reached 80% confluency. Cells were starved for 48 h in Keratinocyte SFM and then treated with 10 μg/ml of mitomycin C (Sigma) for 2 h to prevent cell proliferation. A cell-free area was created by scraping the keratinocyte monolayer with a plastic pipette tip. Keratinocytes migration to the cell-free area was evaluated after 48 h of culture in the absence or presence of EGF or OSM. Using an inverted phase contrast microscope. The number of migrating keratinocytes was counted in 4 non-overlapping fields. Values represent the mean±SEM of cells per mm^2 beyond the frontiers of the in vitro injury. Student's t test was used for statistical analysis.

[11] = tested on: NHEK; assay: RT-real time PCR of S100 mRNA in cytokine-stimulated NHEK; type: cell-based, human; conditions: IL-31
Procedure: as §1

Molecule | Effect of depleting the cytokine from the mix on activity of the complete cocktail [1] | Number of genes (of 154) whose expression is modified with at least a three fold increase or decrease [2] | BD2 production, single cytokines [3] | BD3 production [3] | CXCL1, CXCL5, CXCL8 production, single cytokines [3] | Number of the 21 chemokine and antimicrobial peptide genes upregulated [4] | S100A7 expression in NHEK (western blotting) [5] | Number of KDM whose control mRNA expression is partially restored on removal of the cytokine from M5 [6] | mRNA expression of CK1, DSG1, DSC1, FLG, CLSP, LOR and FABPS [6] | CK10, LOR and FLG expression (immunohistology) ([7]; RHE) | RHE histology [7] | Expression of KDM mRNA (CK10, CK1, LOR, FLG) [8] | S100A7 mRNA expression [8] | IVL expression (immunohistology) ([7]; RHE) | S100A7 expression (immunohistology) ([7]; RHE) | STAT3 tyrosine phosphorylation (P-STAT3) [9] | Keratinocyte migration to the cell-free area [10] | Expression of psoriasin and calgranulin A and B (S100A8-9) [11]
IL-1α: recombinant cytokine IL-1α | did not significantly decrease the activity | at least five genes | most potent inducers | significant increase | most effective | 19 | most potent inducer | 3 KDM | minor activities | did not exhibit any activity | does not modify RHE histology |  |  |  |  |  |  | 
IL-22: recombinant cytokine IL-22 | did not significantly decrease the activity | at least five genes |  | significant increase | discrete effect | 14 |  | 4 KDM | downregulate mRNA expression | decreases expression of CK10, LOR and FLG | significant keratinocyte hyperplasia | most active cytokines | strongly induced | strongly | strongly induced |  |  | 
LIF: leukemia inhibitory factor, cytokine of the IL-6 family |  |  |  |  |  |  |  |  |  |  |  |  |  |  |  | no evidence for a STAT3 activation |  | 
IL-31: cytokine whose receptor is a heterodimer of GPL and an OSMR subunit (protein, UniProt Q6EBC2 24-164, looked up) Interleukin-31: SHTLPVRLLRPSDDVQKIVEELQSLSKMLLKDVEEEKGVLVSQNYTLPCLSPDAQPPNNIHSPAIRAYLKTIRQLDNKSVIDEIIEHLDKLIFQDAPETNISVPTDTHECKRFILTISQQFSECMDLALKSLTSGAQQATT |  |  |  |  |  |  |  |  |  |  |  |  |  |  |  | recruits STAT3 signaling pathways | able to induce keratinocyte migration | induces expression
